One experiment concerns SUM-159-PT. The experiment in a line: cells. As to conditions: Homo sapiens, 72 h.
The test system of experiment [1] is MDA-MB-231. As to the kind of experiment: cells. To be noted: Homo sapiens, MDA-MB-231, 72 h.
Description: Antiproliferative activity against human MDA-MB-231 cells assessed as inhibition of cell growth incubated for 72 hrs by Hoechst stain-based assay
The target in experiment [2] is 3',5'-cyclic-AMP phosphodiesterase 4D (Homo sapiens, UniProt Q08499). The experiment in a line: Activation of PDE4D5 (unknown origin).
Experiment [3] deals with T1, Carnitine O-palmitoyltransferase 1, liver isoform (Homo sapiens) (UniProt P50416).
T1 sequence (whole entry): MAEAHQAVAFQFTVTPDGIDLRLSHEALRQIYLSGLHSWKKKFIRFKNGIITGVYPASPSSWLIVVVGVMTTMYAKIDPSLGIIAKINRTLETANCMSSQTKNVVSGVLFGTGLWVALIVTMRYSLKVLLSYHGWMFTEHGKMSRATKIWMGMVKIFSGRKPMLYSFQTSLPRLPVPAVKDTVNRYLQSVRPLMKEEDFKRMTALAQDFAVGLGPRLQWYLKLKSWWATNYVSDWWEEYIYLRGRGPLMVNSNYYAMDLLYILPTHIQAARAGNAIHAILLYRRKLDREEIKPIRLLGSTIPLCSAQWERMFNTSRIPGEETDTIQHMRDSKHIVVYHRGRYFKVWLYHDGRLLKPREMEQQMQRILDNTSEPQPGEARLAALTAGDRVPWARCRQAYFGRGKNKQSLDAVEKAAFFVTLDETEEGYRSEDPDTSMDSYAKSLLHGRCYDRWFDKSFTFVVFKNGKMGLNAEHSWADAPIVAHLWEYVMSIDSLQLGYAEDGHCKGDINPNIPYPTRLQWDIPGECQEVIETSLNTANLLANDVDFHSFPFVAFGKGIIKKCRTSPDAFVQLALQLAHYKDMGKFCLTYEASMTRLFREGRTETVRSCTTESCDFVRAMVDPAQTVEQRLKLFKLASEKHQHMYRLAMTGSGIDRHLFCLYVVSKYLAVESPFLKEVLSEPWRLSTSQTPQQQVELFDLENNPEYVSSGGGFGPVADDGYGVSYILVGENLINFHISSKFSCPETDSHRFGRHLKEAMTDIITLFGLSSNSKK
The experiment in a line: Activation of CPT-1 in human HeLa cells assessed as fold increase at 100 uM incubated for 10 mins relative to control. The class given is cell-based. To be noted: filed as activator.

In experiment [4] the test system is Mus musculus. The experiment in a line: Anti-obesity activity against diet-induced obese mouse expressing CPT-1 H327E mutant assessed as reduction in body weight at 400 mg/kg, IG administered for 12 week. To be noted: time 12 weeks. It is filed as functional.
Experiment [5] deals with T1, Carnitine O-palmitoyltransferase 1, liver isoform (Homo sapiens). The experiment in a line: Activation of CPT-1 in human HeLa cells assessed as reduction in free fatty acid at 100 uM incubated for 10 mins relative to control. The class given is cell-based. Set-up: scale not given: the % may be the effect or the level left. To be noted: filed as activator.
The subject of experiment [6] is Mus musculus. As to the kind of experiment: Anti-obesity activity against diet-induced obese mouse expressing CPT-1 H327E mutant assessed as reduction in body fat percentage at 400 mg/kg, IG administered for 12 week relative to control. The class given is functional. Set-up: scale not given: the % may be the effect or the level left. As to conditions: time 12 weeks.

The target in experiment [7] is Insulin-degrading enzyme (Homo sapiens) (UniProt P14735). As to the kind of experiment: Activation of IDE (unknown origin) using FRET1 as substrate at 200 uM by SpectraMax M5 multilabel plate reader analysis relative to control. To be noted: filed as activator.
Sequence of Insulin-degrading enzyme (Homo sapiens) (P14735 whole entry): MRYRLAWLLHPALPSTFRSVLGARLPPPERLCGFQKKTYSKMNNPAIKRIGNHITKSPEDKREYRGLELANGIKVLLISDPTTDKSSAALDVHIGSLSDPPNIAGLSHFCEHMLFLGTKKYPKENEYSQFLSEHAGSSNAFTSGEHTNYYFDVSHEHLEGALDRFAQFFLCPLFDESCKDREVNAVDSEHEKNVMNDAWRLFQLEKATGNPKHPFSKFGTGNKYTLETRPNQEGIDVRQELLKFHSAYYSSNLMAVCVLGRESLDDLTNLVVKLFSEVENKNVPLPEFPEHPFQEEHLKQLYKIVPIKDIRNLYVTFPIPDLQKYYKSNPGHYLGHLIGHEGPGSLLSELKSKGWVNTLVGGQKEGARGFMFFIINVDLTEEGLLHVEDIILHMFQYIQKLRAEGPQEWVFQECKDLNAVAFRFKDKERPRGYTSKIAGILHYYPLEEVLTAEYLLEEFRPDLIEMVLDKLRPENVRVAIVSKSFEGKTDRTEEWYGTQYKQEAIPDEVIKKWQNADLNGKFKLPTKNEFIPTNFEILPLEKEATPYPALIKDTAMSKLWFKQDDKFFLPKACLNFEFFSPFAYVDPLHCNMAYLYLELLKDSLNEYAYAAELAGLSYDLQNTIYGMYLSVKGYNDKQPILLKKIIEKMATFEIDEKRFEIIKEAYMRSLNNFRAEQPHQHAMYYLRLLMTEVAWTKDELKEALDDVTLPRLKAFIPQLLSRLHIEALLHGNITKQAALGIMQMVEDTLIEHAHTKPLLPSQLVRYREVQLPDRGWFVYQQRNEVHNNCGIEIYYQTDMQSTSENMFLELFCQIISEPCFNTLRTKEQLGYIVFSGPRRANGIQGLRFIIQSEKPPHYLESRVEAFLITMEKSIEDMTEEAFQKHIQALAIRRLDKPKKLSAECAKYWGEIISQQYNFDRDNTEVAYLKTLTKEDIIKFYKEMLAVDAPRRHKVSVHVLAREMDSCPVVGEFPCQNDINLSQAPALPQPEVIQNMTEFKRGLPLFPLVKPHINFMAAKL
Experiment [8] shares this target. The experiment in a line: Activation of IDE (unknown origin) using SP1 as substrate in presence of ATP by SpectraMax M5 multilabel plate reader analysis relative to control. As to conditions: filed as activator.
The target of experiment [9] is T2, Glucose-6-phosphate 1-dehydrogenase (Homo sapiens, UniProt P11413). As to the kind of experiment: Activation of G6PD dimerization in lymphocytes isolated from G6PD-deficient patient carrying canton variant expressed in Escherichia coli C43(DE3) cells using G6P as substrate assessed as increase in lysate activity in presence of NADP+ by resazurin dye based fluorescence assay relative to control. The class given is subcellular. To be noted: Lymphocyte, filed as activator. Background: The colour change of resazurin is a common sign of viable cells or microbes.
T2 sequence (P11413 whole entry): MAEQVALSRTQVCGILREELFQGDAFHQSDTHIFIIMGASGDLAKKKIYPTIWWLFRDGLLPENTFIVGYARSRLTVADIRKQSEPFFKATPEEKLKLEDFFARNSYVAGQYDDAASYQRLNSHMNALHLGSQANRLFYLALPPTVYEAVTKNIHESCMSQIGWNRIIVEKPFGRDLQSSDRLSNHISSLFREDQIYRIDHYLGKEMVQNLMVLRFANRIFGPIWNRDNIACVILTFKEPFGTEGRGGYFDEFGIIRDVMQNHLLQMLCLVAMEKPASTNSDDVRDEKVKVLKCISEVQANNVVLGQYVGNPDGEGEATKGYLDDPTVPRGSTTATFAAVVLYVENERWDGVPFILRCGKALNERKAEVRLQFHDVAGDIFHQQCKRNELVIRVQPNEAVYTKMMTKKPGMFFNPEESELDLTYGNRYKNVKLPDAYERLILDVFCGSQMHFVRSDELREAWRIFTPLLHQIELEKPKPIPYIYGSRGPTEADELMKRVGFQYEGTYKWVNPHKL

Experiment [10] deals with T2, Glucose-6-phosphate 1-dehydrogenase. As to the kind of experiment: Activation of G6PD (unknown origin) expressed in Escherichia coli C43(DE3) cells using G6P as substrate in presence of NADP+ by resazurin dye-based assay.
Experiment [11] deals with Angiotensin-converting enzyme 2 (Homo sapiens, UniProt Q9BYF1). The experiment in a line: Activation of recombinant human ACE2 using McaAPK(Dnp)-OH as substrate preincubated for 15 mins followed by substrate addition spectra max Gemini M5 fluorescence plate reader analysis.
Sequence of Angiotensin-converting enzyme 2 (Q9BYF1 whole entry): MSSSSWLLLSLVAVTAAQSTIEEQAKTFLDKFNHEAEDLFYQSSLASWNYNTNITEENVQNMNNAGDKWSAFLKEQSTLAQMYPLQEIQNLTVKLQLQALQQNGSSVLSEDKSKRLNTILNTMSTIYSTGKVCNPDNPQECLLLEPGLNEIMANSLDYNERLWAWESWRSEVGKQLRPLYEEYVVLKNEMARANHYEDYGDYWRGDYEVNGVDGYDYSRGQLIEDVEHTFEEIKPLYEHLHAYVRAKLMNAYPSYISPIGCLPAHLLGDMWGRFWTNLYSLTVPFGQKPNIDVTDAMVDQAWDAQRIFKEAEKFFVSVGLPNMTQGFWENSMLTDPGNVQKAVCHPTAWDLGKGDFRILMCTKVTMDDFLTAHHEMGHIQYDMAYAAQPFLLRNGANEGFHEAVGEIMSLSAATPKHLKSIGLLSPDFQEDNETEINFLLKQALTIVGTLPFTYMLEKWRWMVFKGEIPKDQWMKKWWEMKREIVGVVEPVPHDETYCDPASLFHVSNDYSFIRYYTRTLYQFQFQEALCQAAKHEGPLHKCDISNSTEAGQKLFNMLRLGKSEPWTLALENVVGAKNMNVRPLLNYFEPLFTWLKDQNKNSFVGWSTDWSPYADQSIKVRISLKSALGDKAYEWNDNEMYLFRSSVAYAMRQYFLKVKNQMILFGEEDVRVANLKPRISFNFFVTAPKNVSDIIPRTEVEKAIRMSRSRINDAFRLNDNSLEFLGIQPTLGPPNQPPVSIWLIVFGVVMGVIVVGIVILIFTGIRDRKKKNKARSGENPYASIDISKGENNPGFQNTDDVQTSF
In the next experiment the target is N-glycosylase/DNA lyase (Homo sapiens, UniProt O15527). The experiment in a line: Activation of OGG1 (unknown origin) by fluorescence-based assay.
Sequence of N-glycosylase/DNA lyase (O15527 whole entry): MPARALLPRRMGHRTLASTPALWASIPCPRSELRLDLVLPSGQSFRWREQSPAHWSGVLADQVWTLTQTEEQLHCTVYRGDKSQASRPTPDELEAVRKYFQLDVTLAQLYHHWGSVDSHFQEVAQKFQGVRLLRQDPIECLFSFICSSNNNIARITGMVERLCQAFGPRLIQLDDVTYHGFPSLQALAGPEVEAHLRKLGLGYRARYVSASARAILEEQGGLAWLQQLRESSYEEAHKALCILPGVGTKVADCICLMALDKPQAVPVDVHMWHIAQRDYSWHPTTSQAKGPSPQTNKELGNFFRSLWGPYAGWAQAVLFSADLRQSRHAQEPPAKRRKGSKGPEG
For a further experiment, the species on record is Homo sapiens. As to the kind of experiment: Activation of recombinant sGC (unknown origin) assessed as fold increase.
A further experiment has as its system A549. As to the kind of experiment: Anti-oxidative activity in human A549 cells assessed as reduction in cell injury relative to control. It is filed as functional. Set-up: scale not given: the % may be the effect or the level left.
For experiment [12], the target named is Indoleamine 2,3-dioxygenase 1 (Homo sapiens, UniProt P14902). The experiment in a line: Positive allosteric modulation of recombinant human IDOL transfected in mouse P1.HTR cells assessed as increase in Kyn production incubated for 24 hrs. It is filed as cell-based.
Sequence of Indoleamine 2,3-dioxygenase 1 (Homo sapiens, UniProt P14902) (P14902 whole entry): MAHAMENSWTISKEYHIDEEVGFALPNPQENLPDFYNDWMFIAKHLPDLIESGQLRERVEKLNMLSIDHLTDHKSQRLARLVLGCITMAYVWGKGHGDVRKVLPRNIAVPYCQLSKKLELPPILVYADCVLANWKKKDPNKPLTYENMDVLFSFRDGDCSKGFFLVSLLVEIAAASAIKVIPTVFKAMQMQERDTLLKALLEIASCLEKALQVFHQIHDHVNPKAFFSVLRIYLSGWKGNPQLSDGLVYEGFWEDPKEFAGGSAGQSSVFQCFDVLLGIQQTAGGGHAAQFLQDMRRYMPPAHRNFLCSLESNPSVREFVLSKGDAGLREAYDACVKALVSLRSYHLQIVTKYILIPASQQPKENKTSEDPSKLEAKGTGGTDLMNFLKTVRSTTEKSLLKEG
Experiment [13] concerns the target Indoleamine 2,3-dioxygenase 1 (Mus musculus, UniProt P28776). The experiment in a line: Positive allosteric modulation of recombinant mouse IDOL transfected in mouse P1.HTR cells assessed as increase in Kyn production incubated for 24 hrs. It is filed as cell-based.
The nature of experiment [14]: Activation of procaspase-3 (unknown origin). The arrangement: species or system Homo sapiens.
Experiment [15] has as its target Insulin-degrading enzyme (Homo sapiens) (UniProt P14735). As to the kind of experiment: Activation of IDE (unknown origin) using FRET1 as substrate at 6.25 uM by SpectraMax M5 multilabel plate reader analysis relative to control. To be noted: filed as activator.
Experiment [16] is described as follows: Activation of recombinant human procaspase-3 using Ac-DEVD-pNA as substrate preincubated for 12 hrs followed by substrate addition by absorbance based assay.
Experiment [17] is described as follows: Activation of sGC (unknown origin). Set-up: species or system Homo sapiens.
The next experiment deals with NCI-H3255. The experiment in a line: Cytotoxicity against TKI-sensitive LUAD immortalized human NCI-H3255 cells assessed as inhibition of cell growth incubated for 48 hrs by Beckman Coulter cell counter analysis. The class given is functional, cell-based. To be noted: NCI-H3255, 48 h.
A further experiment relates to HCC827. The experiment in a line: Cytotoxicity against TKI-sensitive LUAD immortalized human HCC827 cells assessed as inhibition of cell growth incubated for 48 hrs by Beckman Coulter cell counter analysis. It is filed as functional, cell-based. To be noted: HCC827, 48 h.
In a further experiment the test system is NCI-H1650. As to the kind of experiment: Cytotoxicity against d TKI-resistant LUAD human NCI-H1650 cells assessed as inhibition of cell growth incubated for 48 hrs by Beckman Coulter cell counter analysis. As to conditions: NCI-H1650, 48 h. It is filed as functional, cell-based.
In experiment [18] the test system is NCI-H1975. As to the kind of experiment: Antitumor activity against human NCI-H1975 cells xenografted in mouse model assessed as fold decrease in tumor growth. It is filed as functional. Background: Xenograft models place foreign cells or tissue in a host animal.
The test system of experiment [19] is NCI-H1975. As to the kind of experiment: Cytotoxicity against d TKI-resistant LUAD human NCI-H1975 cells assessed as inhibition of cell growth incubated for 48 hrs by Beckman Coulter cell counter analysis. The class given is functional, cell-based. To be noted: NCI-H1975, 48 h.
Experiment [20] can be described thus: Protection against rotenone-induced stress in human Induced pluripotent stem cell-derived neuron cells relative to control. It is filed as functional.
In another experiment the test system is BT-474. The experiment in a line: Cytotoxicity against human BT-474 cells assessed as inhibition of cell growth incubated for 24 hrs by MTS assay. To be noted: BT-474, 24 h. It is filed as functional, cell-based.
Experiment [21] has as its system MDA-MB-231. As to the kind of experiment: Cytotoxicity against human MDA-MB-231 cells assessed as inhibition of cell growth incubated for 24 hrs by MTS assay. To be noted: MDA-MB-231, 24 h. It is filed as functional, cell-based. For orientation: Formazan colour is commonly taken as a measure of viable cells.

Structures are written as SMILES.

Broadly, the IC50 is the concentration at which inhibition is half-maximal. As usually defined, the EC50 is the concentration that produces a half-maximal response.

Sequence of 3',5'-cyclic-AMP phosphodiesterase 4D (Q08499 whole entry, canonical isoform): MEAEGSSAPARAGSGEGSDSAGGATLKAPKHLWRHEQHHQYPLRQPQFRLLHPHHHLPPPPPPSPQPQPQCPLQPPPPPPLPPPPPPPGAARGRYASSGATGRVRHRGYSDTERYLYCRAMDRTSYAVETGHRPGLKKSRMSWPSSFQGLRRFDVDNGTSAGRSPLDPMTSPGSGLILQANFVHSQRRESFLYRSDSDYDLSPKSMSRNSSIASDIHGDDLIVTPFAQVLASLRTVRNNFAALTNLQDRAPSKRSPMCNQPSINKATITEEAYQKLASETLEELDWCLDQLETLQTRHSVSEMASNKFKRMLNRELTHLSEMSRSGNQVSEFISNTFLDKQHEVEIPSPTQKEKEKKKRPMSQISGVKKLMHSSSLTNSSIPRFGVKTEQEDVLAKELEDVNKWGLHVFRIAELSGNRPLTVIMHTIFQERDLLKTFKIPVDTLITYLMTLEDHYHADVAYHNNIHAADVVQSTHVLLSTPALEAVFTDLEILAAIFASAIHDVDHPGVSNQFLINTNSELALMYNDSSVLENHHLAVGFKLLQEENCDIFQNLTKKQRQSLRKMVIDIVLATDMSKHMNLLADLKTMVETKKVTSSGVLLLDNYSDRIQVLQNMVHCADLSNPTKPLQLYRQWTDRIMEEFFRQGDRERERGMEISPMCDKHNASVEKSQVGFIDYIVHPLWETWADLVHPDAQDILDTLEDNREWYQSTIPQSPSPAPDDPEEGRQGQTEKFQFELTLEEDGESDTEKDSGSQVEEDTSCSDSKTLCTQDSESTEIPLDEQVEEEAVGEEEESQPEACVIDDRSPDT
Sequence of Indoleamine 2,3-dioxygenase 1 (Mus musculus, UniProt P28776) (P28776 whole entry): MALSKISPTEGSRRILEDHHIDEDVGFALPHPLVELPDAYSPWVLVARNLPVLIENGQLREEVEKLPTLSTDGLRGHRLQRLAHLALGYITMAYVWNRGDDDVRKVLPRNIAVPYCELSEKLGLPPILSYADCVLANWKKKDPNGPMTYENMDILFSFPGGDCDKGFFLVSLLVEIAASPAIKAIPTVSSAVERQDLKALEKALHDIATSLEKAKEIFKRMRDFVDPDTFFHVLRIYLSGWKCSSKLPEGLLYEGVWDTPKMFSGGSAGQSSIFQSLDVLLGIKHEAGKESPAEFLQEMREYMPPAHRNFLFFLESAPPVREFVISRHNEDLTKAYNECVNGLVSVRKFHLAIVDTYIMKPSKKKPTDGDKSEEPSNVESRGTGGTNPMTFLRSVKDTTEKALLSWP
Description for SUM-159-PT: Antiproliferative activity against human SUM159 cells assessed as inhibition of cell growth incubated for 72 hrs by Hoechst stain-based assay

In the case of `N#Cc1cccc(CN2CCc3ncn(Cc4ccc(Cl)cc4)c(=O)c3C2)c1`, the 50% inhibitory concentration (IC50) with SUM-159-PT was determined as 0.012 µM; in the experiment with MDA-MB-231 [1], 0.003 µM.
`CCc1nc(-c2ccc(Cl)c(F)c2)nn1CC(=O)NCc1cc(Cl)cc(Cl)c1` showed an EC50 in experiment [2] of 1.2 µM.
Consider `O=C(O)[C@H]1O[C@@H](Oc2cc3oc(-c4ccccc4)cc(=O)c3c(O)c2O)[C@H](O)[C@@H](O)[C@@H]1O` [BAICALIN], for which the fold change (FC) in [3] stood at 7. Further, the Activity in the experiment with Mus musculus [4] is -12.5 g; in [5], 50%; with Mus musculus [6], -0.085%.
On to `O=C1CC(c2ccc(Cl)cc2)CC(=O)C1/C=N/OCc1nnsc1Cl` (stereo unspecified), for which the values for the Activity in [7] and in experiment [8] were 500% and 1000%, respectively.
With `c1ccc2c(CCNCCSSCCNCCc3c[nH]c4ccccc34)c[nH]c2c1`, in experiment [9], the Activity is 78%. The EC50 in [10] turned out to be 0.8 µM.
For the molecule `N=C(N)c1ccc(/N=N/Nc2ccc(C(=N)N)cc2)cc1` [DIMINAZENE], in experiment [11], the EC50 was determined as 8.04 µM.
`Cc1cnc(N2CCN3CCCC3C2)nc1Oc1ccc(-n2ccnc2)cc1` (stereo unspecified) returned a concentration giving a half-maximal response (EC50) on N-glycosylase/DNA lyase of 4.6 µM.
Consider `COC(=O)N(C)c1c(N)nc(-c2nn(Cc3ccccc3F)c3ncccc23)nc1N`, for which the fold change (FC) in the experiment listed under Homo sapiens is less than 73.
With `CNc1nnc(C)c2c1cc(-c1ccc(F)cc1)n2C`, the half-maximal effective concentration (EC50) at N-glycosylase/DNA lyase turned out to be 5.1 µM. Moreover, the Activity in the experiment with A549 is reported as 200%.
On to `c1ccc2c(NC3CCCCC3)nc(C3CC3)nc2c1`, for which, on N-glycosylase/DNA lyase, it took 0.78 µM to reach a half-maximal effect (EC50).
As to `CC(=O)NCCc1c[nH]c2ccc(O)cc12` [ACETYLSEROTONIN], the 50% effective concentration (EC50) in experiment [12] came to 20.9 µM; in [13] it was 19.6 µM.
In [14], `O=C(Nc1cccc(-c2cn3ccccc3n2)c1)c1cc2cccc(O)c2oc1=O` gave an EC50 of 1.3 µM.
With `O=C1OC2(c3ccc(O)cc3Oc3cc(O)ccc32)c2ccccc21` [FLUORESCEIN], the EC50 in [11] was 19.5 µM.
In the case of `O=C(Nc1cccc(Cl)c1)N1CCC(c2cc(-c3ccco3)[nH]n2)CC1`, the Activity in experiment [15] turned out to be 60%.
`O=C(CN1CCN(Cc2nc(-c3ccc(COc4ccc(F)cc4)cc3)no2)CC1)N/N=C/c1ccc(OCc2csc(Cc3ccc4c(c3)OCO4)n2)cc1O`: in [16], the EC50 was found to be 0.95 µM.
With `O=C(Nc1ccc(S(=O)(=O)N2CCOCC2)cc1)c1cc(Cl)ccc1NS(=O)(=O)c1ccc(Cl)s1`, the EC50 in experiment [17] was 0.5 µM.
For the molecule `O=S(=O)(N[C@@H]1CCCC(N2c3ccccc3Oc3ccccc32)[C@H]1O)c1ccc(OC(F)(F)F)cc1` (stereo partly specified), the IC50 in the experiment with NCI-H3255 was 12.4 µM; with HCC827, 14.3 µM; in the experiment on NCI-H1650, 10.6 µM; in the experiment on NCI-H1975 [19] it was 10.6 µM. Also, the “fold change (FC)” value in the experiment on NCI-H1975 [18] is 2.
In turn, `Fc1ccccc1Cc1nc(-c2nc(C(F)(F)F)n[nH]2)cn2ccnc12` [ZAGOCIGUAT] returned an EC50 in experiment [17] of 0.066 µM.
At N-glycosylase/DNA lyase, `OC(Cn1ccnc1)(c1ccc(Cl)cc1Cl)C1CCCCC1` (stereo unspecified) yielded a concentration giving a half-maximal response (EC50) of 5 µM. Besides, the Activity in the experiment on A549 was 650%.
At N-glycosylase/DNA lyase, `Cc1cc(N[C@@H](C)C(=O)Nc2ccccc2)nc(Nc2ccccc2)n1` had an EC50 of 4.1 µM.
As to `O=C(c1cc(O)c(O)c(O)c1)c1ccc(O)c(O)c1O` [EXIFONE], the Activity in experiment [20] is on record as 80%.
For the molecule `CCCCCCCCc1ccc(CCC(N)(CO)CO)cc1` [FINGOLIMOD], the IC50 was found to be 8.5 µM in the experiment with BT-474 and 2.9 µM in the experiment on MDA-MB-231 [21].

The values are drawn from ChEMBL document CHEMBL5375949, “The evolution of small molecule enzyme activators” (RSC Med Chem, 2023).
